The source of these data is US9802903B2, “Process for preparing antiviral compound” (AbbVie Inc., priority 2010, dated 2017).

The data set can be described thus: Ames test (mutagenic potential). Type of data set: cell-based. To be noted: genotoxic testing of process compounds. The text has this:
As discussed above, compound I (including salts thereof) is useful as a drug for treating HCV in humans. Thus, it is important that it be so prepared that it is safe for administration to humans. As one skilled in the art would understand, one aspect of drug safety is the minimization of the amount of genotoxic impurities that are associated with the production of a given drug, and, can therefore also be present in the drug product. A couple of well established tests are used to measure the genotoxicity of chemical compounds. One such test is the computer-based Derek analysis, and the other—the Ames test, which is a biological assay that assesses the mutagenic potential of chemical compounds.
A general note: The Ames test detects mutagens through reverse mutation in bacteria.

As to `Nc1ccc(I)cc1` [Compound 1a, 4-iodoaniline], the Ames test result is “negative”. The result for `CS(=O)(=O)Nc1ccc(I)cc1` [Compound 2a, N-(4-iodophenyl)methanesulfonamide] reads “negative”.
